Experimental data taken from patent US10849907B2, “Imidazopyridine derivatives and the use thereof as medicament” (Boehringer Ingelheim International GmbH, priority 2017, dated 2020).

Key:
human MDR1 (P-gp) = target: T1, human MDR1 (P-gp) (Homo sapiens, UniProt P08183); test: MDCK assay MDR-1 (p-GP): permeability across MDCK-MDR1 monolayers; assay type: in vitro ADME; conditions: for Papp A→B: MDCK-MDR1 monolayers, apical-to-basal, pH 7.4, 1 or 10 μM; for efflux ratio: pH 7.4, MDCK-MDR1, Papp (b-a) divided by Papp (a-b)
T1 construct: expressed in transfected cells; host or cells: MDCKII (Madin-Darby canine kidney) cells
T1 sequence (P08183 whole entry): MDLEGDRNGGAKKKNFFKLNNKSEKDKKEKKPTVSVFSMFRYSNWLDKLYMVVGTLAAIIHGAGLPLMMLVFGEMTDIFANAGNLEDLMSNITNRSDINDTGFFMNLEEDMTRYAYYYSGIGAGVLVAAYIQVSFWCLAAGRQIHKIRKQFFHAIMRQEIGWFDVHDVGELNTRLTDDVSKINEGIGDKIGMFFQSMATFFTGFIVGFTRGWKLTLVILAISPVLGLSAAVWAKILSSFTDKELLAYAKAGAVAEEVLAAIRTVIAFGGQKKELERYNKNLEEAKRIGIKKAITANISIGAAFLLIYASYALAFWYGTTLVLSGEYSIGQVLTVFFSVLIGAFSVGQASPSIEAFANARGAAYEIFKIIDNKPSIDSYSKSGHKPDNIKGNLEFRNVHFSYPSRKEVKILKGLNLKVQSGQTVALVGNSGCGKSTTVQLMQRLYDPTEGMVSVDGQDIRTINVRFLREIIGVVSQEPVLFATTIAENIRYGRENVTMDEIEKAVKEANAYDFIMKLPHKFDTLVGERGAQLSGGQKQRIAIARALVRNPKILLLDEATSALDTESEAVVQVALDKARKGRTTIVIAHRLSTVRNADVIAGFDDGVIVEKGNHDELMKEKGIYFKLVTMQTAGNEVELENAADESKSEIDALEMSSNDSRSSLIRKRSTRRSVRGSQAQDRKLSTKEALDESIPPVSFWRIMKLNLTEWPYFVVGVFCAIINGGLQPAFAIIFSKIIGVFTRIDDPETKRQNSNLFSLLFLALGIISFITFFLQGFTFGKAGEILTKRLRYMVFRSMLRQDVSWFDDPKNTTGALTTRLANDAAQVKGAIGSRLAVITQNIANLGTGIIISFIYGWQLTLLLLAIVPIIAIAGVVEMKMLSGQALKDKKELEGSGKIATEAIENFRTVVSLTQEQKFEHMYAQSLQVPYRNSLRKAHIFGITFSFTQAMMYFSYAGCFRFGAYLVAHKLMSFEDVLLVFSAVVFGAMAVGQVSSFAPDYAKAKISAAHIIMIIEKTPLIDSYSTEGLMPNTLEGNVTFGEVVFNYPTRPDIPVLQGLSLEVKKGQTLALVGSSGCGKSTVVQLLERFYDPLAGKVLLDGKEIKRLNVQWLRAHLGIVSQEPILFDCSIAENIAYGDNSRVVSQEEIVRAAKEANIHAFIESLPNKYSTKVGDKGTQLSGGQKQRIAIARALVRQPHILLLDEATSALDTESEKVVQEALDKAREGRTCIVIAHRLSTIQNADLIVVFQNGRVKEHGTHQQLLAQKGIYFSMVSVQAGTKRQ
Procedure: (§1) The MDCK assays provide information on the potential of a compound to pass the blood brain barrier. Permeability measurements across polarized, confluent MDCK-MDR1 cell monolayers grown on permeable filter supports are used as an in vitro absorption model: apparent permeability coefficients (PE) of the compounds across the MDCK-MDR1 cell monolayers are measured (pH 7.4, 37° C.) in apical-to-basal (AB) and basal-to-apical (BA) transport direction. The AB permeability (PEAB) represents drug absorption from the blood into the brain and the BA permeability (PEBA) drug efflux from the brain back into the blood via both, passive permeability as well as active transport mechanisms mediated by efflux and uptake transporters that are expressed on the MDCK-MDR1 cells, predominantly by the overexpressed human MDR1. Identical or similar permeabilities in both transport directions indicate passive permeation, vectorial permeability points to additional active transport mechanisms. Higher PEBA than PEAB (PEBA/PEAB >5) indicates the involvement of active efflux mediated by MDR1, which might compromise the goal to achieve sufficient brain exposure. Therefore, this assay provides valuable support for selection of compounds applicable for further in vivo testing. High permeability not limited by efflux at the blood brain barrier is a favourable characteristic for compounds that are to be used for drugs acting primarily in the CNS. Similar concepts are applicable to the MDCK BCRP assay and its interpretation; consequently, to ensure high permeability at the blood brain barrier, it is highly preferred to minimize the efflux (efflux <5) at both MDR1 and BCRP transporters.
Apparent permeability coefficients (Papp) of the compounds across the MDCK-MDR1 monolayers (MDCKII cells transfected with human MDR1 cDNA expression plasmid) are measured in apical-to-basal (AB) and basal-to-apical (BA) direction.
(§2) MDCK-MDR1 cells (6×10^5 cells/cm^2) are seeded on filter inserts (Corning, Transwell, polycarbonate, 0.4 μm pore size) and cultured for 9 to 10 days. Compounds dissolved in DMSO stock solution (1-20 mM) are diluted with HTP-4 aqueous buffer (128.13 mM NaCl, 5.36 mM KCl, 1 mM MgSO4, 1.8 mM CaCl2, 4.17 mM NaHCO3, 1.19 mM Na2HPO4, 0.41 mM NaH2PO4, 15 mM HEPES, 20 mM glucose, pH 7.4) supplemented with 0.25% BSA to prepare the transport solutions (final concentration: 1 or 10 μM, final DMSO <=0.5%). The transport solution is applied to the apical or basolateral donor side for measuring A-B or B-A permeability, respectively. The receiver side contains HTP-4 buffer supplemented with 0.25% BSA. Samples are collected at the start and end of experiment from the donor and at various time intervals for up to 2 hours also from the receiver side for concentration measurement by HPLC-MS/MS. Sampled receiver volumes are replaced with fresh receiver solution. Efflux ratio is calculated dividing the Papp (b-a) values by the Papp (a-b) values.

human BCRP = target: T2, human BCRP (Homo sapiens, UniProt Q9UNQ0); test: MDCK assay BCRP: permeability across MDCK-BCRP monolayers; assay type: in vitro ADME; conditions: for Papp A→B: MDCK-BCRP monolayers, apical-to-basal, pH 7.4, 1 or 10 μM; for efflux ratio: pH 7.4, MDCK-BCRP, Papp (b-a) divided by Papp (a-b)
T2 construct: expressed in transfected cells; host or cells: MDCKII (Madin-Darby canine kidney) cells
T2 sequence (Q9UNQ0 1-655): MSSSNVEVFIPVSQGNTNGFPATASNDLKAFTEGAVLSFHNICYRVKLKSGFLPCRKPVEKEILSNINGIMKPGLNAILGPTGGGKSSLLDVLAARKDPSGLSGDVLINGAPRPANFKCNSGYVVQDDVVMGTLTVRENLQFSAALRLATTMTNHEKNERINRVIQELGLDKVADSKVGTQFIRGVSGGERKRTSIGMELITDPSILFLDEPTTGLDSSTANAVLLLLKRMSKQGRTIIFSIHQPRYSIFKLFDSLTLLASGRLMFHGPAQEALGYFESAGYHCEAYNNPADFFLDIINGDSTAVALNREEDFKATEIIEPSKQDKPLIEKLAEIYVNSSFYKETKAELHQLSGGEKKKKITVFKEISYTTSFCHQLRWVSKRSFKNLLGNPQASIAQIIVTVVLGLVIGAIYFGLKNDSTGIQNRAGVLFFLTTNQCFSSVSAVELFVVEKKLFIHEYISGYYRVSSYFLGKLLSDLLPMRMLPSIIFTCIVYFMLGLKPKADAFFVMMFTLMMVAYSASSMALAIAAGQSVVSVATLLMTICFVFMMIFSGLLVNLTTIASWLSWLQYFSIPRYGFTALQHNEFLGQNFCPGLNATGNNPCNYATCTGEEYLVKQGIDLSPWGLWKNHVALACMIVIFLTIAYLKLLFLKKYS
Procedure: as §1
as §2, with “Apparent permeability coefficients (Papp) of the compounds across the MDCK-BCRP monolayers (MDCKII cells transfected with human BCRP cDNA expression plasmid) are measured in apical-to-basal (AB) and basal-to-apical (BA) direction. MDCK-BCRP” for “MDCK-MDR1”

Structure (SMILES): O=C(OCc1cccc(F)c1)N1CCO[C@H](c2nc3cccnc3[nH]2)C1 [Example 1]
- Papp A→B (human MDR1 (P-gp)): 61 ×10⁻⁶ cm/s
- efflux ratio (human MDR1 (P-gp)): 0.9
- Papp A→B (human BCRP): 38 ×10⁻⁶ cm/s
- efflux ratio (human BCRP): 2.4

Structure (SMILES): O=C(OCc1ccc(F)cc1)N1CCO[C@H](c2nc3cccnc3[nH]2)C1 [Example 2]
- Papp A→B (human MDR1 (P-gp)): 31.5 ×10⁻⁶ cm/s
- efflux ratio (human MDR1 (P-gp)): 1.7
- Papp A→B (human BCRP): 34 ×10⁻⁶ cm/s
- efflux ratio (human BCRP): 2.9

Structure (SMILES): Cc1ccccc1COC(=O)N1CCO[C@H](c2nc3cccnc3[nH]2)C1 [Example 8]
- Papp A→B (human MDR1 (P-gp)): 39 ×10⁻⁶ cm/s
- efflux ratio (human MDR1 (P-gp)): 1.6
- Papp A→B (human BCRP): 46 ×10⁻⁶ cm/s
- efflux ratio (human BCRP): 1.8

Structure (SMILES): Cc1cccc(F)c1COC(=O)N1CCO[C@H](c2nc3cccnc3[nH]2)C1 [Example 10]
- Papp A→B (human MDR1 (P-gp)): 37 ×10⁻⁶ cm/s
- efflux ratio (human MDR1 (P-gp)): 1.6
- Papp A→B (human BCRP): 40 ×10⁻⁶ cm/s
- efflux ratio (human BCRP): 2.2

Structure (SMILES): Cc1ccc(COC(=O)N2CCO[C@H](c3nc4cccnc4[nH]3)C2)c(F)c1 [Example 11]
- Papp A→B (human MDR1 (P-gp)): 32 ×10⁻⁶ cm/s
- efflux ratio (human MDR1 (P-gp)): 1.4
- Papp A→B (human BCRP): 63 ×10⁻⁶ cm/s
- efflux ratio (human BCRP): 1

Structure (SMILES): Cc1ccc(COC(=O)N2CCO[C@H](c3nc4cccnc4[nH]3)C2)cc1F [Example 12]
- Papp A→B (human MDR1 (P-gp)): 46 ×10⁻⁶ cm/s
- efflux ratio (human MDR1 (P-gp)): 0.9
- Papp A→B (human BCRP): 69 ×10⁻⁶ cm/s
- efflux ratio (human BCRP): 1

Structure (SMILES): O=C(OCc1ccc(F)cc1Cl)N1CCO[C@H](c2nc3cccnc3[nH]2)C1 [Example 13]
- Papp A→B (human MDR1 (P-gp)): 35 ×10⁻⁶ cm/s
- efflux ratio (human MDR1 (P-gp)): 1.3
- Papp A→B (human BCRP): 72 ×10⁻⁶ cm/s
- efflux ratio (human BCRP): 0.9

Structure (SMILES): O=C(OCc1ccccc1Cl)N1CCO[C@H](c2nc3cccnc3[nH]2)C1 [Example 14]
- Papp A→B (human MDR1 (P-gp)): 38 ×10⁻⁶ cm/s
- efflux ratio (human MDR1 (P-gp)): 1.1
- Papp A→B (human BCRP): 68 ×10⁻⁶ cm/s
- efflux ratio (human BCRP): 1.2

Structure (SMILES): O=C(OCc1cccc(F)c1F)N1CCO[C@H](c2nc3cccnc3[nH]2)C1 [Example 15]
- Papp A→B (human MDR1 (P-gp)): 59 ×10⁻⁶ cm/s
- efflux ratio (human MDR1 (P-gp)): 1.2
- Papp A→B (human BCRP): 33 ×10⁻⁶ cm/s
- efflux ratio (human BCRP): 2.8

Structure (SMILES): O=C(OCc1c(F)cccc1F)N1CCO[C@H](c2nc3cccnc3[nH]2)C1 [Example 16]
- Papp A→B (human MDR1 (P-gp)): 41 ×10⁻⁶ cm/s
- efflux ratio (human MDR1 (P-gp)): 1.2
- Papp A→B (human BCRP): 49 ×10⁻⁶ cm/s
- efflux ratio (human BCRP): 2.1

Structure (SMILES): O=C(OCc1ccccc1)N1CCO[C@H](c2nc3cccnc3[nH]2)C1 [Example 17]
- Papp A→B (human MDR1 (P-gp)): 40 ×10⁻⁶ cm/s
- efflux ratio (human MDR1 (P-gp)): 1.3
- Papp A→B (human BCRP): 37 ×10⁻⁶ cm/s
- efflux ratio (human BCRP): 2.5

Structure (SMILES): Cc1ccc(COC(=O)N2CCO[C@H](c3nc4cccnc4[nH]3)C2)cc1 [Example 18]
- Papp A→B (human MDR1 (P-gp)): 37 ×10⁻⁶ cm/s
- efflux ratio (human MDR1 (P-gp)): 1.3
- Papp A→B (human BCRP): 53 ×10⁻⁶ cm/s
- efflux ratio (human BCRP): 1.2

Structure (SMILES): O=C(OCc1ccc(F)cc1F)N1CCO[C@H](c2nc3cccnc3[nH]2)C1 [Example 19]
- Papp A→B (human MDR1 (P-gp)): 42 ×10⁻⁶ cm/s
- efflux ratio (human MDR1 (P-gp)): 1.6
- Papp A→B (human BCRP): 61 ×10⁻⁶ cm/s
- efflux ratio (human BCRP): 1.6

Structure (SMILES): O=C(OCc1ccc(C(F)F)cc1)N1CCO[C@H](c2nc3cccnc3[nH]2)C1 [Example 26]
- Papp A→B (human MDR1 (P-gp)): 32 ×10⁻⁶ cm/s
- efflux ratio (human MDR1 (P-gp)): 2
- Papp A→B (human BCRP): 24 ×10⁻⁶ cm/s
- efflux ratio (human BCRP): 2.7

Structure (SMILES): O=C(OCc1ccccc1F)N1CCO[C@H](c2nc3cccnc3[nH]2)C1 [Example 27]
- Papp A→B (human MDR1 (P-gp)): 65 ×10⁻⁶ cm/s
- efflux ratio (human MDR1 (P-gp)): 1.2
- Papp A→B (human BCRP): 24 ×10⁻⁶ cm/s
- efflux ratio (human BCRP): 5.2

Structure (SMILES): O=C(OCc1ccc(Cl)cc1)N1CCO[C@H](c2nc3cccnc3[nH]2)C1 [Example 28]
- Papp A→B (human MDR1 (P-gp)): 42 ×10⁻⁶ cm/s
- efflux ratio (human MDR1 (P-gp)): 1.1
- Papp A→B (human BCRP): 56 ×10⁻⁶ cm/s
- efflux ratio (human BCRP): 1.2

Structure (SMILES): Cc1ccc(COC(=O)N2CCO[C@H](c3nc4cc(F)cnc4[nH]3)C2)cc1 [Example 31]
- Papp A→B (human MDR1 (P-gp)): 18 ×10⁻⁶ cm/s
- efflux ratio (human MDR1 (P-gp)): 1.8
- Papp A→B (human BCRP): 85 ×10⁻⁶ cm/s
- efflux ratio (human BCRP): 0.7
